From patent publication US11197857B2, “Combination therapy” (GlaxoSmithKline Intellectual Property Development Limited, priority 2016, dated 2021) come the findings set out here.

In one data set the target is PRMT5/MEP50 (Homo sapiens, UniProt O14744). Briefly: PRMT5/MEP50 radioactive assay (3H transfer from SAM to H4 peptide / protein substrate). The data set is classed as biochemical. The following applies: close analogs of Compound C.
The subject of data set [1] is 19 enzymes: Type I and Type II PRMTs and lysine methyltransferases (KMTs). The experiment in a line: methyltransferase selectivity panel. The data set is classed as biochemical. The conditions noted are these: for selectivity over other methyltransferases: PRMT5 tool compounds. An excerpt:
FIG. 31: Phylogenetic tree highlighting the methyltransferases tested in the selectivity panel. […] PRMT9 is shown for relationship purposes only within the family tree and was not evaluated in the panel. Figure adapted from Richon V M. et al.
PRMT9/FBXO11, which is the other Type II PRMT and the only PRMT to lack the THW loop, was not included due to the lack of a functional enzyme assay.

The next data set has as its system 240 cancer cell lines. Briefly: 10-day 2D growth assay, 240 cell lines. The format is cell-based. The method, then:
FIG. 34: Compound B gIC50 values in cancer cell lines (n=240) from 10 day 2D growth assay. ALL-acute lymphoblastic leukemia, AML-acute myeloid leukemia, CML-chronic myeloid leukemia, DLBCL-diffuse large B-cell lymphoma, HL-Hodgkin lymphoma, HN-head and neck cancer, MM-multiple myeloma, NHL-non-Hodgkin lymphoma, NSCLC-non-small cell lung cancer, PEL-primary effusion lymphoma, SCLC-small cell lung cancer, TCL-T-cell lymphoma.
The tumor types with median gIC50<100 nM were acute myeloid leukemia (AML), chronic myelogenous leukemia (CML), Hodgkin's Lymphoma (HL), multiple myeloma (MM), breast, glioma, kidney, melanoma, and ovarian cancer.

Data set [2] concerns breast cancer cell lines (SKBR3, MDA-MB-468, MCF-7, ZR-75-1). Briefly: longer-term (10-12 day) growth/death assay. The format is cell-based. The following applies: SKBR3, MDA-MB-468 and MCF-7 cells, prolonged exposure (7-10 days).
In data set [3] the test system is panel of cancer cell lines. Briefly: cells. The format is cell-based. The source says: DLBCL-diffuse large B-cell lymphoma, GBM-glioblastoma, MCL-mantle cell lymphoma, MM-multiple myeloma
The cell lines were selected to represent tumor types where PRMT5 activity has been reported to regulate key pathways and/or cell growth and survival (such as lymphoma and MCL, glioma, breast and lung cancer lines).

For a further data set, the system named is Z138 MCL cells. The experiment in a line: 6-day growth/death assay. The data set is classed as cell-based. The conditions noted are these: Z138, 6-day.
The next data set has as its system SDMA in Z138 cells. Briefly: SDMA ELISA. The format is cell-based. The following applies: Homo sapiens.
Data set [4] deals with gene expression in Z138 cells. The experiment in a line: qPCR gene expression (11 genes). The following applies: Homo sapiens, Z-138, 96 h, day 4. The format is cell-based.
Data set [5] concerns MDM4 splicing, SDMA, p53 and p21 in MCL lines. Briefly: MDM4 splicing (RT-PCR) and SDMA/p53/p21 western. The format is cell-based. The method, then:
To understand whether p53 activation is associated with MDM4 isoform switching, MDM4 alternative splicing was analyzed. […] The role of the p53 pathway in the biology of the response of p53 wild-type MCL cells to PRMT5 inhibition is being evaluated.

The subject of another data set is MCL cell lines. The experiment in a line: 6-day growth/death CTG assay in MCL cell lines. The data set is classed as cell-based. The following applies: for IC50: read-out: gIC50.
Data set [6] relates to Z-138 MCL xenograft model. The experiment in a line: Z138 xenograft 21-day efficacy and PD. The format is in vivo. The conditions noted are these: for TGI: 21-day. On the procedure:
(§1) B. Quantified SDMA western data from tumors harvested at the end of the efficacy study (3 hours post last dose).

The subject of data set [7] is Maver-1 MCL xenograft model. Briefly: Maver-1 xenograft efficacy and PD. The data set is classed as in vivo. The following applies: for TGI: day 18. The method, then:
as §1

A further data set relates to 4 breast cancer lines. Briefly: propidium iodide FACS cell cycle analysis. The data set is classed as cell-based. The conditions noted are these: after 7-10 days of treatment.
Data set [8] deals with MDA-MB-468 triple negative breast cancer xenograft model. The experiment in a line: MDA-MB-468 xenograft efficacy and PK/PD. The format is in vivo. On the procedure:
Next, the efficacy of PRMT5 inhibition was evaluated in in vivo models of breast cancer.

For another data set, the system named is GBM cell lines. The experiment in a line: 2D 6-day growth/death CTG assay. The format is cell-based.
In data set [9] the test system is SDMA in a panel of 5 MCL lines. Briefly: SDMA inhibition in MCL panel. The following applies: read-out: SDMA IC50.
Excerpt: (B) SDMA IC50 values in a panel of MCL lines (EPIZYME data, day 4).
Data set [10] has as its system patient-derived tumor models and cell lines (n=73). The experiment in a line: soft agar 3D colony formation assay. The following applies: n=73 models. The format is cell-based. The source says: FIG. 35: Compound E relative IC50 values from 8-13 day colony formation assay performed in patient-derived and cell line tumor models.
Tumor types with the lowest median IC50 values were large cell lung cancer, breast, kidney and glioma.

Where two headings read alike, the source gives them in different places.

Sequence of PRMT5/MEP50 (O14744 whole entry): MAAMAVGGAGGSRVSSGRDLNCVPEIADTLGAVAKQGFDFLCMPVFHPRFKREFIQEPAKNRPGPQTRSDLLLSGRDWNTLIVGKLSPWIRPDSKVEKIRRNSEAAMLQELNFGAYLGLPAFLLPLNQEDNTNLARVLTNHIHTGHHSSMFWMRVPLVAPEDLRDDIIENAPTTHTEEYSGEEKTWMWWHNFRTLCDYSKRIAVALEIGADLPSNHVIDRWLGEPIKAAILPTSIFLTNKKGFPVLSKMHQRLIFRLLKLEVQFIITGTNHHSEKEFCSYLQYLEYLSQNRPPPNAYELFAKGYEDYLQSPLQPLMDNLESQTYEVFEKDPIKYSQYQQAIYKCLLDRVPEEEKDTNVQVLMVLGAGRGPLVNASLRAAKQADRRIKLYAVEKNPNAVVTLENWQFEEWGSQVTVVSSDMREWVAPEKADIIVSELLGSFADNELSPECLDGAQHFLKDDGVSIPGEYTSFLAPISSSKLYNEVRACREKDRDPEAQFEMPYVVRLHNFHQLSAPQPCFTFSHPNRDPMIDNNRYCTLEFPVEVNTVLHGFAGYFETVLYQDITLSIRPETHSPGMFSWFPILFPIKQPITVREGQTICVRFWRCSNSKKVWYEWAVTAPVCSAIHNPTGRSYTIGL
Sequence of PRMT5/MEP50 (Q9BQA1 whole entry partner): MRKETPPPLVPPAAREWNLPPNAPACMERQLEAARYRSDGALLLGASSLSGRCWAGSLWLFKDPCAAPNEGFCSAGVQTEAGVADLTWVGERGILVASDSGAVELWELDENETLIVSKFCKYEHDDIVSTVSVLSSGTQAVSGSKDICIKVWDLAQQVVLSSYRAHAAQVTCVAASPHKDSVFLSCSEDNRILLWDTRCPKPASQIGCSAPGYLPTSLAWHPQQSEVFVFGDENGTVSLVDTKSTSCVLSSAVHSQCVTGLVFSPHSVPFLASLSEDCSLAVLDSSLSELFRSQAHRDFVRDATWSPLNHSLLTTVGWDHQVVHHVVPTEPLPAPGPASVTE

With `O=C(NC[C@H](O)CN1CCc2ccccc2C1)c1ccnc(NC2CCC2)c1` [Compound B], the “inhibitory potency compared with Compound C” value on PRMT5/MEP50 is “similar”. In addition, the “selectivity over other methyltransferases” value (“selectivity” for short) in data set [1] is reported as “Selectivity for PRMT5/MEP50 over the other methyltransferases”. Also, the IC50 in the data set with 240 cancer cell lines (AML, CML, HL, MM, breast, glioma, kidney, melanoma, ovarian cancer, read-out: median gIC50) is less than 100 nM; with 240 cancer cell lines (majority of cell lines, read-out: gIC50), less than 1000 nM. In [2], the nature of response entry is “cytotoxic response”.
`CC(=O)N1CCC(Nc2cc(C(=O)NC[C@H](O)CN3CCc4ccccc4C3)ncn2)CC1` [Compound C]: the IC50 in [1] (any of the 19 enzymes) is greater than 40000 nM; in data set [3] (majority of cell lines tested, read-out: gIC50), less than 1000 nM; with Z138 MCL cells (Homo sapiens, Z-138, 144 h, read-out: gIC50) it was 2.7 nM; in the data set on SDMA in Z138 cells (Z-138, 72 h, day 3), 4.79 nM; in the data set with MCL cell lines (1 cell line of the MCL panel), greater than 1000 nM; in the data set with MCL cell lines (2 lines of the MCL panel), no more than 100 nM. Moreover, the IC50 was less than 10 nM in the data set with MCL cell lines (3 cell lines of the MCL panel); 40 to 22000 nM in the data set on GBM cell lines (144 h, GBM cell lines, 6-day, read-out: gIC50); 0.3 to 14 nM in data set [9]. For the same compound, the “potency for any other tested enzyme (FIG. 31)” value in [1] (phylogenetic tree symbol class) was > 10^−5 M. Besides, the gIC50 result was “single digit nM range” in [3] (most sensitive lymphoma lines (MCL and DLBCL)); “low” in the data set on MCL cell lines (Z-138, Maver-1 and JVM-2). Moreover, the gIC95 in the data set on Z138 MCL cells worked out at 82 nM. The same compound returned a gIC100 with Z138 MCL cells of 880 nM. Besides, the 50% effective concentration (EC50) in the data set on SDMA in Z138 cells (Z-138, 24 h, day 1) is 7.3 nM; with SDMA in Z138 cells (Z-138, 72 h, day 3), 2.35 nM; in [4], 22 to 332 nM. The EC90 in the data set on SDMA in Z138 cells (Z-138, 72 h, day 3, read-out: SDMA EC90 (complete inhibition above)) amounted to 19 nM. Further, the MDM4 isoform switching result in [5] (Z138 and JVM-2 cells (both p53 wild-type)) is on record as “induced MDM4 isoform switching”. In addition, the “concentrations at which SDMA levels were undetectable by Western blot” value in data set [5] (Z138 cells) was “above 8 nM”. The “concentrations at which changes in MDM4 splicing and p53/p21 protein expression were apparent” value in [5] (Z138 cells) is “above 8 nM”. Also, the “p53 and p21 expression” value in data set [5] (Z138 cells, 200 nM Compound C) was “increased p53 and p21 expression to similar levels”. Besides, the sensitivity result with MCL cell lines (Mino, Jeko-1 (ibrutinib sensitive lines)) is given as “only moderately sensitive”. Also, the results for the “reduction of the methyl mark (SDMA western, tumors)” value in data set [6] (all dose groups) and in data set [6] (top dose groups) were “greater than 70%” and greater than 98%, respectively. Besides, in [6] (all groups in all efficacy studies presented), the body weight loss entry is “no body weight loss”. Besides, the inhibition of tumour growth (TGI) in data set [6] (lowest dose group, 25 mg/kg BID) is on record as 40%; in data set [6] (top 100 mg/kg BID dose group), greater than 90%; in data set [7] (lowest dose group) it was 50%; in [7] (top dose groups), greater than 90%; in data set [8] (100 mg/kg BID), 83%. In addition, the “reduction of the methyl mark (SDMA, tumors)” value in data set [7] (all dose groups) was 80-95%. For the same compound, the nature of response entry in data set [2] is listed as “cytotoxic response”; in the data set on GBM cell lines (with the exception of the SF539 cell line) it was “largely cytostatic”. Besides, in the data set with 4 breast cancer lines, the “breast cancer lines with induction of cell death (increase in <2N)” value is 3 out of 4. Also, the SDMA inhibition result in [8] (100 mg/kg BID) is “greater than 90%”; in data set [8] (100 mg/kg QD) it was “less than 80%”. Besides, the efficacy entry in data set [8] (100 mg/kg QD) is recorded as “not efficacious”.
Take `O=C(NC[C@H](O)CN1CCc2ccccc2C1)c1cc(NC2COC2)ncn1` [Compound E]: on PRMT5/MEP50, the “inhibitory potency compared with Compound C” value was “similar”. Besides, the “selectivity” value in data set [1] was “Selectivity for PRMT5/MEP50 over the other methyltransferases”. The “share of models with relative growth IC50 values below 1 μM” value in data set [10] was 37%.
Regarding `CC(=O)N1CCC(Nc2cc(C(=O)NC[C@H](O)CN3CCc4ccccc4C3)ccn2)CC1` [Compound F], the “inhibitory potency compared with Compound C” value on PRMT5/MEP50 is listed as “similar”. Further, the “selectivity” value in data set [1] is recorded as “Selectivity for PRMT5/MEP50 over the other methyltransferases”.
As for `COc1ccc(C2=N[C@@H](c3ccc(Cl)cc3)[C@@H](c3ccc(Cl)cc3)N2C(=O)N2CCNC(=O)C2)c(OC(C)C)c1` [Nutlin-3, reference compound], in data set [5] (Z138 cells, 5 μM MDM2 inhibitor (Nutlin-3)), the “p53 and p21 expression” value was “increased p53 and p21 expression to similar levels”.
